Measured values: patent publication US10323007B1, “N2N N4-disubstituted quinazoline-2,4-diamines and uses thereof” (University of South Florida, priority 2016, dated 2019)
In brackets after ≈: the same amount, converted by molar mass.

What follows are compounds tested on A. baumannii 1650 (assay: MIC assay, strain 1650). Conditions: Acinetobacter baumannii; strain 1650; Tables 1, 3, 4, 5 and footnotes; read-out: 1650 MIC.
Type: cell-based, Acinetobacter baumannii
Experimental: (§1) MIC and MBC assays were performed in this study as documented by us previously.^17,23,24,25 The A. baumannii strains used are detailed in Table 7.

`CNc1nc(NCCc2ccccc2)nc2ccc(Br)cc12` [Compound 19, 6-Bromo-N^4-methyl-N^2-phenethylquinazoline-2,4-diamine] and `CNc1nc(NCCc2ccccc2)nc2ccc(C)cc12` [Compound 20, N^4,6-Dimethyl-N^2-phenethylquinazoline-2,4-diamine] cannot be ordered by MIC: > 50 µM for the first, > 50 µM for the second.

Compared with `C=Cc1ccc2nc(NCc3ccccc3)nc(NC)c2c1` [Compound 22, N^2-Benzyl-N^4-methyl-6-vinylquinazoline-2,4-diamine], `C=C(C)c1ccc2nc(NCc3ccccc3)nc(NC)c2c1` [Compound 24, N^2-Benzyl-N^4-methyl-6-(prop-1-en-2-yl)quinazoline-2,4-diamine] is higher in MIC: 20 µM (≈ 5.81 µg/mL) for the first, > 50 µM for the second.

Compared with `CCc1ccc2nc(NCc3ccccc3)nc(NC)c2c1` [Compound 23, N^2-Benzyl-6-ethyl-N^4-methylquinazoline-2,4-diamine], `CNc1nc(NCc2ccccc2)nc2ccc(C3=CCCC3)cc12` [Compound 28, N^2-Benzyl-6-(cyclopent-1-en-1-yl)-N^4-methylquinazoline-2,4-diamine] is higher in MIC: 30 µM (≈ 8.77 µg/mL) for the first, > 50 µM for the second.

The compounds below were run on A. baumannii 1403 (assay: MIC assay, strain 1403). Conditions: Acinetobacter baumannii; strain 1403; Tables 1, 3, 4, 5 and footnotes; read-out: 1403 MIC.
Type: cell-based, Acinetobacter baumannii
Experimental: as §1

`CNc1nc(NCCc2ccccc2)nc2ccc(Br)cc12` [Compound 19, 6-Bromo-N^4-methyl-N^2-phenethylquinazoline-2,4-diamine] and `CNc1nc(NCCc2ccccc2)nc2ccc(C)cc12` [Compound 20, N^4,6-Dimethyl-N^2-phenethylquinazoline-2,4-diamine] cannot be ordered by MIC: > 50 µM for the first, > 50 µM for the second.

Compared with `C=Cc1ccc2nc(NCc3ccccc3)nc(NC)c2c1` [Compound 22, N^2-Benzyl-N^4-methyl-6-vinylquinazoline-2,4-diamine], `C=C(C)c1ccc2nc(NCc3ccccc3)nc(NC)c2c1` [Compound 24, N^2-Benzyl-N^4-methyl-6-(prop-1-en-2-yl)quinazoline-2,4-diamine] is higher in MIC: 25 µM (≈ 7.26 µg/mL) for the first, > 50 µM for the second.

First: CCc1ccc2nc(NCc3ccccc3)nc(NC)c2c1 [Compound 23, N^2-Benzyl-6-ethyl-N^4-methylquinazoline-2,4-diamine]
Second: CNc1nc(NCc2ccccc2)nc2ccc(C3=CCCC3)cc12 [Compound 28, N^2-Benzyl-6-(cyclopent-1-en-1-yl)-N^4-methylquinazoline-2,4-diamine]
The MIC of the first is lower: 30 µM (≈ 8.77 µg/mL) for the first, > 50 µM for the second.

Each compound was assayed on A. baumannii 1646 (assay: minimal bactericidal concentration (MBC) assay, strain 1646). Conditions: isolate 1646.
Type: cell-based, Acinetobacter baumannii
From the text: Lead quinazolines 4, 5, 26, 29, 27, and 30 were selected to be further evaluated for antimicrobial effects. The first assay utilized was a minimal bactericidal concentration (MBC) assay, to assess whether leads compounds were bacteriostatic or bactericidal. The six lead agents were screened to identify their MBC90 towards each of the six A. baumannii isolates used in the SAR studies (Table 8), however for simplicity only the representative data for isolate 1646 is detailed below (Table 6). […] Further to this, we were able to obtain complete eradication of bacterial growth for these two compounds at 1 μM for 24 and 5 μM for 25.
as §1

For `C=C(C)c1ccc2nc(NCc3ccccc3)nc(NC)c2c1` [Compound 24, N^2-Benzyl-N^4-methyl-6-(prop-1-en-2-yl)quinazoline-2,4-diamine], the “concentration giving complete eradication of bacterial growth” value was 1 µM.

What follows are compounds tested on A. baumannii 1646 (assay: MIC assay, strain 1646). Conditions: Acinetobacter baumannii; strain 1646; Tables 1, 3, 4, 5 and footnotes; read-out: 1646 MIC.
Type: cell-based, Acinetobacter baumannii
Experimental: as §1

`CNc1nc(NCCc2ccccc2)nc2ccc(Br)cc12` [Compound 19, 6-Bromo-N^4-methyl-N^2-phenethylquinazoline-2,4-diamine] and `CNc1nc(NCCc2ccccc2)nc2ccc(C)cc12` [Compound 20, N^4,6-Dimethyl-N^2-phenethylquinazoline-2,4-diamine] are the same in MIC: 2 µM (≈ 0.715 µg/mL) for the first, 2 µM (≈ 0.585 µg/mL) for the second.

`C=Cc1ccc2nc(NCc3ccccc3)nc(NC)c2c1` [Compound 22, N^2-Benzyl-N^4-methyl-6-vinylquinazoline-2,4-diamine] and `C=C(C)c1ccc2nc(NCc3ccccc3)nc(NC)c2c1` [Compound 24, N^2-Benzyl-N^4-methyl-6-(prop-1-en-2-yl)quinazoline-2,4-diamine] are the same in MIC: 2 µM (≈ 0.581 µg/mL) for the first, 2 µM (≈ 0.609 µg/mL) for the second.

`CCc1ccc2nc(NCc3ccccc3)nc(NC)c2c1` [Compound 23, N^2-Benzyl-6-ethyl-N^4-methylquinazoline-2,4-diamine] and `CNc1nc(NCc2ccccc2)nc2ccc(C3=CCCC3)cc12` [Compound 28, N^2-Benzyl-6-(cyclopent-1-en-1-yl)-N^4-methylquinazoline-2,4-diamine] are the same in MIC: 2 µM (≈ 0.585 µg/mL) for the first, 2 µM (≈ 0.661 µg/mL) for the second.

What follows are compounds tested on A. baumannii 1649 (assay: MIC assay, strain 1649). Conditions: Acinetobacter baumannii; strain 1649; Tables 1, 3, 4, 5 and footnotes; read-out: 1649 MIC.
Type: cell-based, Acinetobacter baumannii
Experimental: as §1

`CNc1nc(NCCc2ccccc2)nc2ccc(Br)cc12` [Compound 19, 6-Bromo-N^4-methyl-N^2-phenethylquinazoline-2,4-diamine] and `CNc1nc(NCCc2ccccc2)nc2ccc(C)cc12` [Compound 20, N^4,6-Dimethyl-N^2-phenethylquinazoline-2,4-diamine] cannot be ordered by MIC: > 50 µM for the first, > 50 µM for the second.

Compared with `C=Cc1ccc2nc(NCc3ccccc3)nc(NC)c2c1` [Compound 22, N^2-Benzyl-N^4-methyl-6-vinylquinazoline-2,4-diamine], `C=C(C)c1ccc2nc(NCc3ccccc3)nc(NC)c2c1` [Compound 24, N^2-Benzyl-N^4-methyl-6-(prop-1-en-2-yl)quinazoline-2,4-diamine] is 2.5-fold higher in MIC: 10 µM (≈ 2.9 µg/mL) for the first, 25 µM (≈ 7.61 µg/mL) for the second.

Compared with `CCc1ccc2nc(NCc3ccccc3)nc(NC)c2c1` [Compound 23, N^2-Benzyl-6-ethyl-N^4-methylquinazoline-2,4-diamine], `CNc1nc(NCc2ccccc2)nc2ccc(C3=CCCC3)cc12` [Compound 28, N^2-Benzyl-6-(cyclopent-1-en-1-yl)-N^4-methylquinazoline-2,4-diamine] is 5-fold higher in MIC: 10 µM (≈ 2.92 µg/mL) for the first, 50 µM (≈ 16.5 µg/mL) for the second.

These compounds were tested on A. baumannii 1651 (assay: MIC assay, strain 1651). Conditions: Acinetobacter baumannii; strain 1651; Tables 1, 3, 4, 5 and footnotes; read-out: 1651 MIC.
Type: cell-based, Acinetobacter baumannii
Experimental: as §1

`CNc1nc(NCCc2ccccc2)nc2ccc(Br)cc12` [Compound 19, 6-Bromo-N^4-methyl-N^2-phenethylquinazoline-2,4-diamine] and `CNc1nc(NCCc2ccccc2)nc2ccc(C)cc12` [Compound 20, N^4,6-Dimethyl-N^2-phenethylquinazoline-2,4-diamine] are the same in MIC: 10 µM (≈ 3.57 µg/mL) for the first, 10 µM (≈ 2.92 µg/mL) for the second.

First: C=Cc1ccc2nc(NCc3ccccc3)nc(NC)c2c1 [Compound 22, N^2-Benzyl-N^4-methyl-6-vinylquinazoline-2,4-diamine]
Second: C=C(C)c1ccc2nc(NCc3ccccc3)nc(NC)c2c1 [Compound 24, N^2-Benzyl-N^4-methyl-6-(prop-1-en-2-yl)quinazoline-2,4-diamine]
The MIC of the first is 2.5-fold higher: 25 µM (≈ 7.26 µg/mL) for the first, 10 µM (≈ 3.04 µg/mL) for the second.

Going from `CCc1ccc2nc(NCc3ccccc3)nc(NC)c2c1` [Compound 23, N^2-Benzyl-6-ethyl-N^4-methylquinazoline-2,4-diamine] to `CNc1nc(NCc2ccccc2)nc2ccc(C3=CCCC3)cc12` [Compound 28, N^2-Benzyl-6-(cyclopent-1-en-1-yl)-N^4-methylquinazoline-2,4-diamine], the MIC rises from 2 µM (≈ 0.585 µg/mL) to 30 µM (≈ 9.91 µg/mL) (15-fold).

The compounds below were run on A. baumannii (assay: MIC assay, A. baumannii isolates (strain not given)). Conditions: Acinetobacter baumannii; strain not given; read-out: MIC.
Type: cell-based, Acinetobacter baumannii
Experimental: as §1

`CNc1nc(NCCc2ccccc2)nc2ccc(Br)cc12` [Compound 19, 6-Bromo-N^4-methyl-N^2-phenethylquinazoline-2,4-diamine] and `CNc1nc(NCCc2ccccc2)nc2ccc(C)cc12` [Compound 20, N^4,6-Dimethyl-N^2-phenethylquinazoline-2,4-diamine] fall in the same range of MIC: 2 to 4 µM (≈ 0.715 to 1.43 µg/mL) for the first, 2 to 4 µM (≈ 0.585 to 1.17 µg/mL) for the second.

What follows are compounds tested on A. baumannii 1652 (assay: MIC assay, strain 1652). Conditions: Acinetobacter baumannii; strain 1652; Tables 1, 3, 4, 5 and footnotes; read-out: 1652 MIC.
Type: cell-based, Acinetobacter baumannii
Experimental: as §1

`CNc1nc(NCCc2ccccc2)nc2ccc(Br)cc12` [Compound 19, 6-Bromo-N^4-methyl-N^2-phenethylquinazoline-2,4-diamine] and `CNc1nc(NCCc2ccccc2)nc2ccc(C)cc12` [Compound 20, N^4,6-Dimethyl-N^2-phenethylquinazoline-2,4-diamine] cannot be ordered by MIC: > 50 µM for the first, > 50 µM for the second.

Compared with `C=Cc1ccc2nc(NCc3ccccc3)nc(NC)c2c1` [Compound 22, N^2-Benzyl-N^4-methyl-6-vinylquinazoline-2,4-diamine], `C=C(C)c1ccc2nc(NCc3ccccc3)nc(NC)c2c1` [Compound 24, N^2-Benzyl-N^4-methyl-6-(prop-1-en-2-yl)quinazoline-2,4-diamine] is higher in MIC: 25 µM (≈ 7.26 µg/mL) for the first, > 50 µM for the second.

First: CCc1ccc2nc(NCc3ccccc3)nc(NC)c2c1 [Compound 23, N^2-Benzyl-6-ethyl-N^4-methylquinazoline-2,4-diamine]
Second: CNc1nc(NCc2ccccc2)nc2ccc(C3=CCCC3)cc12 [Compound 28, N^2-Benzyl-6-(cyclopent-1-en-1-yl)-N^4-methylquinazoline-2,4-diamine]
The MIC of the first is lower: 30 µM (≈ 8.77 µg/mL) for the first, > 50 µM for the second.
